33 molecules from ChEMBL document CHEMBL3714750, “Aryl sulfonamides” (2008) can be followed below.

In the assay the target is T1, C-C chemokine receptor type 9 (Homo sapiens, UniProt P51686).
T1 sequence (P51686 whole entry): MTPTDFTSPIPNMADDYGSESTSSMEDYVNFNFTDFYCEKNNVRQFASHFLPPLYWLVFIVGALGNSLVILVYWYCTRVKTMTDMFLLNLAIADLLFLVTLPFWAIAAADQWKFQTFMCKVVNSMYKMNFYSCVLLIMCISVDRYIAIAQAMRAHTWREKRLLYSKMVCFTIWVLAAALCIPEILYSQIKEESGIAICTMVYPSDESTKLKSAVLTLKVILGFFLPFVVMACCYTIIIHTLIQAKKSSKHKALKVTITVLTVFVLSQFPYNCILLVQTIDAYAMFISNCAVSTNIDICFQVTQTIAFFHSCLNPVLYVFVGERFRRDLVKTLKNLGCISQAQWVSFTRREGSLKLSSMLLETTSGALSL
Description: Antagonist activity against CCR9 in human MOLT4 cells assessed as inhibition of human recombinant TECK-induced calcium response pre-treated before TECK stimulation by Flou-4-AM dye based FLIPR assay. The class given is functional, cell-based, MOLT-4.
Broadly, the IC50 is the concentration that inhibits the measured activity by half. Take `O=C(c1ccncc1)c1cc(Cl)ccc1NS(=O)(=O)c1ccc(Cl)cc1`: the IC50 is more than 1 µM.

Consider `CC1(c2ccc(S(=O)(=O)Nc3ccc(Cl)cc3C(=O)c3ccncc3)cc2)OCCO1`, for which the IC50 is less than 1 µM.

Turning to `CC(C)(C)c1ccc(S(=O)(=O)Nc2ccc(Cl)cc2C(=O)c2ccc(N3CCOCC3)nc2)cc1`, the half-inhibitory concentration (IC50) is more than 1 µM.

Regarding `Cc1ncccc1C(=O)c1cc(Cl)ccc1NS(=O)(=O)c1ccc(C2(C)CCOCC2)cc1`, the half-maximal inhibitory concentration (IC50) was less than 1 µM.

Take `Cc1cccc(C(=O)c2cc(Cl)ccc2NS(=O)(=O)c2ccc(C3(C)CCOCC3)cc2)n1`: the IC50 was less than 1 µM.

For the molecule `O=C(c1ccncc1)c1cc(Cl)ccc1NS(=O)(=O)c1ccc(N2CCN(CC(F)(F)F)CC2)cc1`, the concentration for half-maximal inhibition (IC50) is more than 1 µM.

As to `COc1ccc(S(=O)(=O)Nc2ccc(Cl)cc2C(=O)NCCc2ccccc2)cc1`, the half-maximal inhibitory concentration (IC50) is less than 1 µM.

`O=C(c1ccncc1)c1cc(Cl)ccc1NS(=O)(=O)c1ccc(-c2ccsc2)cc1`: the IC50 is less than 1 µM.

Regarding `CC(=O)c1ccc(S(=O)(=O)Nc2ccc(Cl)cc2C(=O)c2ccnc(C)c2)cc1`, the concentration for half-maximal inhibition (IC50) was more than 1 µM.

For `O=C(c1ccncc1)c1cc(Cl)ccc1NS(=O)(=O)c1ccc(N2CCOCC2)cc1`, the 50% inhibitory concentration (IC50) is less than 1 µM.

Regarding `O=C(c1ccncc1)c1cc(Cl)ccc1NS(=O)(=O)c1ccc(N2CCNCC2)cc1`, the IC50 is more than 1 µM.

For the molecule `O=C(c1ccncc1)c1cc(Cl)ccc1NS(=O)(=O)c1ccc(-c2cccnc2F)cc1`, the IC50 was more than 1 µM.

For `COc1ccc(S(=O)(=O)Nc2ccc(Cl)cc2C(=O)N2CCCCC2)cc1`, the IC50 is more than 1 µM.

Turning to `Cc1cc(C(=O)c2cc(Cl)ccc2NS(=O)(=O)c2ccc(OC(F)(F)F)cc2)ccn1`, the IC50 was less than 1 µM.

Regarding `COc1ccc(S(=O)(=O)Nc2ccc(Br)cc2C(=O)c2ccncc2)cc1`, the IC50 is more than 1 µM.

As to `COc1ccc(S(=O)(=O)Nc2ccc(Cl)cc2C(=O)c2nccn2C)cc1`, the IC50 is more than 1 µM.

Regarding `Cn1nc(C(=O)c2cc(Cl)ccc2NS(=O)(=O)c2ccc(C(C)(C)C)cc2)c2ccccc21`, the IC50 was more than 1 µM.

For the molecule `CC(C)(C)c1ccc(S(=O)(=O)Nc2ccc(Br)cc2C(=O)c2ccncc2)cc1`, the IC50 was less than 1 µM.

`Cc1ccc(C(=O)c2cc(Cl)ccc2NS(=O)(=O)c2ccc(N3C[C@@H](C)O[C@@H](C)C3)cc2)c[n+]1[O-]`: the IC50 is less than 1 µM.

Turning to `Cc1ccc(C(=O)c2cc(Cl)ccc2NS(=O)(=O)c2ccc(C(C)(C)C)cc2)cn1`, the IC50 is less than 1 µM.

On to `Cc1cccc(C(=O)c2cc(Cl)ccc2NS(=O)(=O)c2ccc(C(C)(C)c3ncco3)cc2)n1`, for which the IC50 is less than 1 µM.

In the case of `Cc1ccc(C(=O)c2cc(Cl)ccc2NS(=O)(=O)c2ccc(OC(C)C)cc2)cn1`, the IC50 was less than 1 µM.

On to `CC(C)(C)c1ccc(S(=O)(=O)Nc2ccc(Cl)cc2C(=O)c2cccnc2)cc1`, for which the IC50 is less than 1 µM.

In the case of `Cc1cc(C(=O)c2cc(Cl)ccc2NS(=O)(=O)c2ccc(C(C)(C)C)cc2)ccn1`, the IC50 was less than 1 µM.

Regarding `CC(C)(C)c1ccc(S(=O)(=O)Nc2ccc(F)c(F)c2C(=O)c2cccnc2)cc1`, the IC50 is less than 1 µM.

On to `O=C(c1ccncc1)c1cc(Cl)ccc1NS(=O)(=O)c1ccc(-c2ccc[nH]2)cc1`, for which the IC50 is more than 1 µM.

On to `Cc1ccc(C(=O)c2cc(Cl)ccc2NS(=O)(=O)c2ccc(S(C)(=O)=O)cc2)c[n+]1[O-]`, for which the IC50 is less than 1 µM.

As to `Cc1cc(C(=O)c2cc(Cl)ccc2NS(=O)(=O)c2ccc(C3(C)CCOCC3)cc2)ccn1`, the IC50 is less than 1 µM.

In the case of `COc1ccc(S(=O)(=O)Nc2ccc(Cl)cc2C(=O)Nc2ccccc2)cc1`, the IC50 is less than 1 µM.

For `CC(C)(C)c1ccc(S(=O)(=O)Nc2ccc(Cl)cc2C(=O)c2ccncn2)cc1`, the IC50 is less than 1 µM.

`CC(=O)N1CCN(c2ccc(S(=O)(=O)Nc3ccc(Cl)cc3C(=O)c3ccncc3)cc2)CC1`: the IC50 is more than 1 µM.

Consider `CC(C)(c1ccc(S(=O)(=O)Nc2ccc(Cl)cc2C(=O)c2ccncc2)cc1)c1cocn1`, for which the IC50 is less than 1 µM.

Regarding `CC(C)(c1ccc(S(=O)(=O)Nc2ccc(Cl)cc2C(=O)c2ccc[n+]([O-])c2)cc1)c1ncco1`, the IC50 is less than 1 µM.
